Source: ChEMBL document CHEMBL5608181, “Discovery of indazole inhibitors for heat shock protein 90 as anti-cancer agents” (Eur J Med Chem, 2024)
Activity calls are given as the source filed them. No cut-off for these calls is given here.

Key:
Homo sapiens = organism: Homo sapiens; experiment: Inhibition of N-terminal HSP90 (unknown origin) at 10 uM by AlphaLISA assay
BT-474 [1] = experiment: Antiproliferative activity against human BT-474 cells assessed as inhibition of cell viability at 10 uM measured after 72 hrs by CellTiter 96 Aqueous One Solution Cell Proliferation Assay relative to control; format: functional
BT-474 [2] = experiment: Antiproliferative activity against human BT-474 cells assessed as inhibition of cell viability at 10 uM measured after 72 hrs by CellTiter 96 Aqueous One Solution Cell Proliferation Assay; format: functional, cell-based
HEK293 = experiment: Cytotoxicity against HEK293 cells assessed as reduction in cell viability at 10 uM measured after 72 hrs by CellTiter 96 Aqueous One Solution Cell Proliferation Assay; format: toxicity, cell-based; settings: human, hek293, 72 h
JIMT-1 = experiment: Antiproliferative activity against human JIMT-1 cells assessed as inhibition of cell viability at 10 uM measured after 72 hrs by CellTiter 96 Aqueous One Solution Cell Proliferation Assay; format: functional, cell-based
CYP2C9 = CYP2C9 (Homo sapiens, UniProt P11712); experiment: Inhibition of CYP2C9 (unknown origin) at 10 uM relative to control; format: ADME
CYP3A4 = CYP3A4 (Homo sapiens, UniProt P08684); experiment: Inhibition of CYP3A4 (unknown origin) at 10 uM relative to control; format: ADME
CYP1A2 = biological target: T1, CYP1A2 (Homo sapiens, UniProt P05177); experiment: Inhibition of CYP1A2 (unknown origin) at 10 uM relative to control; format: ADME
T1 sequence (P05177 whole entry): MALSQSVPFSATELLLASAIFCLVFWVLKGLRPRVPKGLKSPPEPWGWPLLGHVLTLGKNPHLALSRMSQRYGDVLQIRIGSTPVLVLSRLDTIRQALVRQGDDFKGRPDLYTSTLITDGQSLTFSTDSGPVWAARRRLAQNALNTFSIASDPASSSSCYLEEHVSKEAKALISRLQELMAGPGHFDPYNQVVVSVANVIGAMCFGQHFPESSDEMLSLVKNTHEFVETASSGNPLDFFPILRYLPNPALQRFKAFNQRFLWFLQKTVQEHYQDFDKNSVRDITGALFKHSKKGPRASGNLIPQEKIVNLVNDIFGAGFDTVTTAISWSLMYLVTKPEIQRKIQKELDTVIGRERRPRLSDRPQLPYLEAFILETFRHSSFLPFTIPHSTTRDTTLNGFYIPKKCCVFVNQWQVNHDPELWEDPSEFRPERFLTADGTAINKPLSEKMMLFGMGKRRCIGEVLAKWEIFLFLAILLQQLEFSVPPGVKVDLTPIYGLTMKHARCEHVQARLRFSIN

CYP2C19 = CYP2C19 (Homo sapiens, UniProt P33261); experiment: Inhibition of CYP2C19 (unknown origin) at 10 uM relative to control; format: ADME
Chain of CYP2C19 (P33261 whole entry): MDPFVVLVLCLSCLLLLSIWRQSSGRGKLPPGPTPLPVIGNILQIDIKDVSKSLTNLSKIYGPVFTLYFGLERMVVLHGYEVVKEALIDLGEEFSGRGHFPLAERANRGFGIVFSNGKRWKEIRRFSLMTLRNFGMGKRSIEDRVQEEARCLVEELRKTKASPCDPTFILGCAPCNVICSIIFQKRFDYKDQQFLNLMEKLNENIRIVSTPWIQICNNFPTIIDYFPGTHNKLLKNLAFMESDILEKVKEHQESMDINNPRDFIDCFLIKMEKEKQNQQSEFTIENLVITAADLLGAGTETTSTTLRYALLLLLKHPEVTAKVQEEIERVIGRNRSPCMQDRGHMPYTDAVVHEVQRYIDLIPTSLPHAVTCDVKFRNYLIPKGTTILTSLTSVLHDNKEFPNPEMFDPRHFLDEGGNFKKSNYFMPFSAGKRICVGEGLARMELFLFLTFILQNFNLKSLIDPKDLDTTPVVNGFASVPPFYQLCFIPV

Chain of CYP3A4 (P08684 whole entry): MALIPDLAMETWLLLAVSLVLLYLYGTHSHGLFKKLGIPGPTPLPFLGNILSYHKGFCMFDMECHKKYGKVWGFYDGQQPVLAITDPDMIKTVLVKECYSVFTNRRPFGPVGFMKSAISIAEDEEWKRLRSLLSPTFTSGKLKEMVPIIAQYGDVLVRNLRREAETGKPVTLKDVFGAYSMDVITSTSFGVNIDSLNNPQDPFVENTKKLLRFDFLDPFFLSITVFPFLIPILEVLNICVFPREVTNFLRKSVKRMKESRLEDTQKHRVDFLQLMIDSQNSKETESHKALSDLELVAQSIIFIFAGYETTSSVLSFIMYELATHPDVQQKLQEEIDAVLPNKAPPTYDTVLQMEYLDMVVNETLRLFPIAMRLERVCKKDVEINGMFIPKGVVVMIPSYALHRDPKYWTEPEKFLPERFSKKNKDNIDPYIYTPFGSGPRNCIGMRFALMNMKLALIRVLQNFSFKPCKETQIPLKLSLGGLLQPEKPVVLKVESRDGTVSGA
Chain of CYP2C9 (P11712 whole entry): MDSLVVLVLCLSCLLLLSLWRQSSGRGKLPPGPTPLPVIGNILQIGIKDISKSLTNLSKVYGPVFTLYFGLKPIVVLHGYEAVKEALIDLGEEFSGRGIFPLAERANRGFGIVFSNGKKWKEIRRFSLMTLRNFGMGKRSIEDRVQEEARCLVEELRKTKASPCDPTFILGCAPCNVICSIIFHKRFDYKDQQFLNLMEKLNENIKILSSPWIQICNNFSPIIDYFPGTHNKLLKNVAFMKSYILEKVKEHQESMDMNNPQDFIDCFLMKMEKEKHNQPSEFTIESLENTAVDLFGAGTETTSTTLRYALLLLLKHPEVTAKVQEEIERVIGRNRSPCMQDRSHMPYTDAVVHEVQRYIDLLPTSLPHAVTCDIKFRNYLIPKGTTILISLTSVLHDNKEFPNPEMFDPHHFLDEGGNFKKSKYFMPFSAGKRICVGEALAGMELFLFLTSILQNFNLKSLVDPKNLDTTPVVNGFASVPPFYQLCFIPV

CC(C)c1cc(C(=O)N2Cc3ccc(CN4CCN(C)CC4)cc3C2)c(O)cc1O was tested, and the inhibition (Homo sapiens) was “Active”.

In the case of COCCCn1nc(NC(=O)c2ccc3c(c2OC)C=CC(C)(C)O3)c2ccccc21, the inhibition at 10 µM (BT-474 [1]) is reported as greater than 50%.

COc1c(C(=O)Nc2ccc3c(C)nn(CCN4CCOCC4)c3c2)ccc2c1C=CC(C)(C)O2 showed an inhibition at 10 µM (BT-474 [1]) greater than 50%.

With COCCn1cc(NC(=O)c2ccc3c(c2OC)C=CC(C)(C)O3)c2ccccc21 the Activity (BT-474 [2]) was “Active”, the Activity (HEK293) was “Toxic” and the Activity (JIMT-1) was “Active”.

For COc1c(C(=O)Nc2nn(CCC3CCN(C)CC3)c3ccccc23)ccc2c1C=CC(C)(C)O2, the inhibition at 10 µM (BT-474 [1]) was greater than 50%.

CC(=O)N1CCN(c2ccc(OCC3COC(Cn4ccnc4)(c4ccc(Cl)cc4Cl)O3)cc2)CC1 (stereo unspecified) [KETOCONAZOLE] showed an inhibition at 10 µM (CYP2C9) of 96.8%, an inhibition at 10 µM (CYP3A4) of 32% and an inhibition at 10 µM (CYP1A2) greater than 100%. It also gave an inhibition at 10 µM (CYP2C19) greater than 100%.
